Numbers after ± are expanded uncertainties.
How the values were obtained:
[1] = 101 kPa, Liquid; for viscosity: Concentric cylinders viscometry; for speed of sound: Pulse-echo method; for mass density: Vibrating tube method
[2] = xn = mol fraction of the nth substance listed; conditions: 101 kPa, Liquid, x2 = 0; for viscosity: Concentric cylinders viscometry; for speed of sound: Pulse-echo method; for mass density: Vibrating tube method

C1COCCO1 [1,4-dioxane]
[1]
Conditions	mass density [kg/m3]	speed of sound [m/s]	viscosity [mPa·s]
298.15 K	1027.99 ± 0.25	1345.1 ± 1.2	1.212 ± 0.042
303.15 K	1022.33 ± 0.25	1323.1 ± 1.2	1.115 ± 0.039
308.15 K	1016.66 ± 0.24	1301.3 ± 1.2	1.028 ± 0.036
313.15 K	1010.98 ± 0.24	1279.7 ± 1.2	0.952 ± 0.033
318.15 K	1005.28 ± 0.23	1258.2 ± 1.2	0.883 ± 0.031
323.15 K	999.58 ± 0.23	1237.4 ± 1.2	0.822 ± 0.029

C1COCCO1 [1,4-dioxane] + CCCCCCCO
[2]
Conditions	mass density [kg/m3]	speed of sound [m/s]	viscosity [mPa·s]
298.15 K	1027.99 ± 0.25	1345.1 ± 1.2	1.212 ± 0.042
303.15 K	1022.33 ± 0.25	1323.1 ± 1.2	1.115 ± 0.039
308.15 K	1016.66 ± 0.24	1301.3 ± 1.2	1.028 ± 0.036
313.15 K	1010.98 ± 0.24	1279.7 ± 1.2	0.952 ± 0.033
318.15 K	1005.28 ± 0.23	1258.2 ± 1.2	0.883 ± 0.031
323.15 K	999.58 ± 0.23	1237.4 ± 1.2	0.822 ± 0.029

CCCCCCCO [heptan-1-ol]
[1]
Conditions	mass density [kg/m3]	speed of sound [m/s]	viscosity [mPa·s]
298.15 K	819.73 ± 0.23	1328.3 ± 1.2	5.869 ± 0.2
303.15 K	816.183 ± 0.23	1311.3 ± 1.2	4.989 ± 0.17
308.15 K	812.61 ± 0.23	1294.5 ± 1.2	4.27 ± 0.15
313.15 K	809.011 ± 0.23	1277.7 ± 1.2	3.677 ± 0.13
318.15 K	805.383 ± 0.24	1261.1 ± 1.2	3.186 ± 0.11
323.15 K	801.731 ± 0.24	1245.1 ± 1.2	2.777 ± 0.096

From the NIST ThermoML archive (doi:10.1021/je400512u)
